Test results published in article PMC9369311, “Examination of Intracellular GPCR-Mediated Signaling with High Temporal Resolution” (International Journal of Molecular Sciences, 2022).
pEC50: −log10 of the molar value. Several values for one entry are separate records, joined by “and”; a condition that tells them apart may be missing. Equal entries are not always repeated. Where two headings read alike, the source gives them in different places.

Target: T1, DmOctβ1 receptor (Drosophila melanogaster, UniProt Q9VCZ3)
T1 construct: expressed in transfected cells; host or cells: flpTM cells (HEK293 flpIn, Invitrogen #750-07, carrying the CNGA2 variant)
T1 sequence (Q9VCZ3 1-508): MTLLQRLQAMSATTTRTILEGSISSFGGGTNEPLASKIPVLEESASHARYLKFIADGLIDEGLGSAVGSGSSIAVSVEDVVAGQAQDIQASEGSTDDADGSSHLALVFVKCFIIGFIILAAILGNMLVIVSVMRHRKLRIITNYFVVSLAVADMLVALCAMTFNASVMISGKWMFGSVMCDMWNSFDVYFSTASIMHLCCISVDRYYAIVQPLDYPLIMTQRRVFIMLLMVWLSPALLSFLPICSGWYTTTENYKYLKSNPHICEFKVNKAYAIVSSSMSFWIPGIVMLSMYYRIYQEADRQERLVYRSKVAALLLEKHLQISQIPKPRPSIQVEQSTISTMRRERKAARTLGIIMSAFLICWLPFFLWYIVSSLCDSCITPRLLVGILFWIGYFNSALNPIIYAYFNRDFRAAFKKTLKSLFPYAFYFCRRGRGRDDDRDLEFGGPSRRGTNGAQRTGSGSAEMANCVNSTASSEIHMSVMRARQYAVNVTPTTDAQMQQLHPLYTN
Assay: Ca2+ fluorimetry in plate reader (96 MWP), flpTM-DmOctβ1 cells (cAMP-mediated Ca2+ influx via CNGA2)
Assay type: cell-based
Details: for pEC50: read-out: EC50
Description: Both the DmOctα1B receptor- and DmOctβ1 receptor-expressing (=flpTM-DmOctβ1) cell lines were initially investigated via Ca^2+ fluorimetric measurements in a plate reader. The cells were seeded in 96 well plates and loaded with Fluo-4, enabling the detection of changes in [Ca^2+]i. The Fluo-4 was excited at 485 nm and the fluorescence emission was recorded at 510 nm. To overcome the cAMP degradation by cell-endogenous phosphodiesterases, the DmOctβ1-expressing cells were treated with 100 µM iso-butylmethylxanthine (IBMX). Prior to the ligand application, the basal fluorescence (F0) was recorded and the concentration–response curves were generated by plotting the changes in fluorescence ((Fmax − F0)/F0 = ΔF/F0) against the ligand concentrations. For a better comparison, the fluorescence intensities were normalized. The maximal change in fluorescence for each of the stimulation series was defined as 100%. The EC50 values were determined from a nonlinear regression plot (four parameters) using GraphPad Prism v5.04 for analysis and display.
In order to omit loading with the fluorescent dye, both the DmOctα1B-expressing cells and flpTM-DmOctβ1 cells were stably transfected with a construct encoding the cytosolic version of GCaMP3.0. As in the previous experiment with Fluo-4, the GCaMP3.0-expressing cell lines were seeded in 96 well plates and incubated with the same series of increasing octopamine concentrations. The GCaMP3.0 was excited at 485 nm and the fluorescence emission was recorded at 510 nm. The basal fluorescence (F0) was recorded before adding the octopamine concentration series. The fluorescence intensities were normalized to the maximal change in fluorescence, defined as 100%. The concentration–response curves were generated with GraphPad Prism v5.04. In Figure 1, the concentration–response curves obtained with Fluo-4 and GCaMP3.0 are depicted for both of the receptors. […]

NCC(O)c1ccc(O)cc1 (stereo not drawn) [octopamine]
EC50 (flpTM-DmOctβ1-GCaMP3.0 cells, 100 µM IBMX, given as logEC50 (negative), read-out: logEC50 ± SD (converted)): 0.437 nM
pEC50 (flpTM-DmOctβ1-GCaMP3.0 cells, 100 µM IBMX): 9.40
pEC50 (flpTM-DmOctβ1 cells loaded with Fluo-4, 100 µM IBMX): ~8.92 and 8.92
